This is an account of results in patent US8501238B2, “Anti-infective agents and uses thereof” (priority 2007, dated 2013).

The subject of assay [1] is genotype 1b-Con1 subgenomic replicon cell line. In words: microbe, parasite or virus in culture. In kind it is cell-based, HCV. The conditions noted are these: Hepatitis C virus, 72 h, read-out: EC50 1b.
The subject of assay [2] is genotype 1a-H77 subgenomic replicon cell line. The assay can be described thus: microbe, parasite or virus in culture. In kind it is cell-based, HCV. The conditions noted are these: Hepatitis C virus, 72 h, read-out: EC50 1a.
In assay [3] the target is T1, HCV polymerase 1B (Δ21 NS5B) (Hepatitis C virus genotype 1b, UniProt P26663).
T1 construct: 20 to 50nM Δ21 NS5B
T1 sequence (P26663 2420-2989, stated change not applied): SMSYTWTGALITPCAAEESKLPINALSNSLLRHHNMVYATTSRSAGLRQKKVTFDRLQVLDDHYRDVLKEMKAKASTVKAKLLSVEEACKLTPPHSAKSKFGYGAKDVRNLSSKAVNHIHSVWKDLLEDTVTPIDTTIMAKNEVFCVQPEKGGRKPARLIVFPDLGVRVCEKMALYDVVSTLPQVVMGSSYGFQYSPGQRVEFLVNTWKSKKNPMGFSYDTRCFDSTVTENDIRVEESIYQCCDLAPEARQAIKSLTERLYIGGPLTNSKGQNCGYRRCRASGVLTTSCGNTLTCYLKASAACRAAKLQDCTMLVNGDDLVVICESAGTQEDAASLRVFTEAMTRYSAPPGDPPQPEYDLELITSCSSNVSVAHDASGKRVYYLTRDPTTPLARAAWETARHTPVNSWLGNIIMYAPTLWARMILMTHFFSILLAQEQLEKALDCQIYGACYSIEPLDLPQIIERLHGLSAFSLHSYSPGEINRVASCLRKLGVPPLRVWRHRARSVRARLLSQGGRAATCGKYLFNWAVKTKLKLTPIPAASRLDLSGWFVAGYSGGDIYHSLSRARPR
In words: biochemical. The procedure: (§1) Either two-fold serial dilutions (fractional inhibition assay) or a narrower range of dilutions spanning the IC50 of the inhibitor (tight binding assay) of the inhibitors were incubated with 20mM Tris-Cl pH 7.4, 2 mM MnCl2, 1 mM dithiothreitol, 1 mM ethylene diamine tetraacetic acid (EDTA), 60 to 125μM GTP and 20 to 50nM Δ21 NS5B (HCV Strain 1B (BK, Genbank accession number M58335, or H77, Genbank accession number AF011751)) for 15min at room temperature. The reaction was initiated by the addition of 20μM CTP, 20μM ATP, 1μM ^3H-UTP (10mCi/umol), 5nM template RNA and 0.1 U/μl RNase inhibitor (RNasin, Promega), and allowed to proceed for 2 to 4h at room temperature. Reaction volume was 50μl. The reaction was terminated by the addition of 1 volume of 4mM spermine in 10mM Tris-Cl pH 8.0, 1mM EDTA. After incubation for at least 15 min at room temperature, the precipitated RNA was captured by filtering through a GF/B filter (Millipore) in a 96 well format. The filter plate was washed three times with 200μl each of 2mM spermine, 10mM Tris-Cl pH 8.0, lmM EDTA, and 2 times with ethanol. After air-drying, 30μl of Microscint 20 scintillation cocktail (Packard) was added to each well, and the retained cpm were determined by scintillation counting. […] Retained cpm were plotted vs. inhibitor concentration and fit to equation 1 using non-linear regression (ref. 1) to obtain the IC50 values: Retained cpm=A[sqrt{(IC50+It−Et)^2+4*IC50*Et}−([…])]
Ref. Morrison, J. F. and S. R. Stone. 1985. Approaches to the study and analysis of the inhibition of enzymes by slow- and tight-binding inhibitors. Comments Mol. Cell. Biophys. 2: 347-368.
(§2) The sequence of the template RNA used was: 5′-[…]-3′

Assay [4] addresses T2, HCV polymerase 1A (Δ21 NS5B) (Hepatitis C virus genotype 1a, UniProt P27958).
T2 construct: 20 to 50nM Δ21 NS5B
The assay can be described thus: HCV Polymerase Inhibition Assay (1a). It is filed as biochemical. The procedure:
as §1, with “The” for “Either two-fold serial dilutions (fractional inhibition assay) or a narrower range of dilutions spanning the IC50 of the inhibitor (tight binding assay) of the inhibitors were incubated with 20mM Tris-Cl pH 7.4, 2 mM MnCl2, 1 mM dithiothreitol, 1 mM ethylene diamine tetraacetic acid (EDTA), 60 to 125μM GTP and 20 to 50nM Δ21 NS5B (HCV Strain 1B (BK, Genbank accession number M58335, or H77, Genbank accession number AF011751)) for 15min at room temperature. The”
Ref. Morrison, J. F. and S. R. Stone. […] Approaches to the study and analysis of the inhibition of enzymes by slow- and tight-binding inhibitors. Comments Mol. Cell. Biophys.
as §2

T2 sequence (P27958 2421-2990, stated change not applied): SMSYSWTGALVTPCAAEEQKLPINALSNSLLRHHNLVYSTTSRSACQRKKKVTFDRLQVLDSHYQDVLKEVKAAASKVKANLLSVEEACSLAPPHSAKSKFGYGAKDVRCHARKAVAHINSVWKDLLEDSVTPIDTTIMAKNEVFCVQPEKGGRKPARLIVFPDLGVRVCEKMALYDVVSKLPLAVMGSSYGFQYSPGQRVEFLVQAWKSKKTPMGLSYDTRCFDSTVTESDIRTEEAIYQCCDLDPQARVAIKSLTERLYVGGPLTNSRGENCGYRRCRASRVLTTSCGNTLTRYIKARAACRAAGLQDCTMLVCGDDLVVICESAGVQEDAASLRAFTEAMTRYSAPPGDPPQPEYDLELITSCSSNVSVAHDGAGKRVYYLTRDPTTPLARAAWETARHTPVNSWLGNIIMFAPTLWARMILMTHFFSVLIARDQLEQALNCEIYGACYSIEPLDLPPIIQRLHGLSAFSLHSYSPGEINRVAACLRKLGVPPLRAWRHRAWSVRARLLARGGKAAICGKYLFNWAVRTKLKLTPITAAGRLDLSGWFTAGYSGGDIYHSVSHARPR

Usually EC50 stands for the concentration needed to bring the measured effect to its halfway point. On to `COc1c(-c2ccc3c(c2)CC[C@@H]3CNS(C)(=O)=O)cc(-n2ccc(=O)[nH]c2=O)cc1C(C)(C)C` (single isomer, unassigned) [IB-L0-2.9], for which the EC50 in assay [1] and in assay [2] was less than 10 nM throughout.

Regarding `COc1c(-c2ccc3c(c2)CC[C@H]3CNS(C)(=O)=O)cc(-n2ccc(=O)[nH]c2=O)cc1C(C)(C)C` (single isomer, unassigned) [IB-L0-2.15], the EC50 in assay [1] was in the range of 10 to 100 nM; in assay [2], 100 to 1000 nM.

Consider `COc1c(-c2ccc3c(c2)CC[C@@H]3C(C)(C)NS(C)(=O)=O)cc(-n2ccc(=O)[nH]c2=O)cc1C(C)(C)C` (single isomer, unassigned) [IB-L0-2.22], for which the EC50 in assay [1] fell in the range of 10 to 100 nM; in assay [2], 100 to 1000 nM.

As for `COc1c(-c2ccc3c(c2)CC[C@H]3C(C)(C)NS(C)(=O)=O)cc(-n2ccc(=O)[nH]c2=O)cc1C(C)(C)C` (single isomer, unassigned) [IB-L0-2.37], the figures for the EC50 in assay [1] and in assay [2] were 100 to 1000 nM and more than 1000 nM, respectively.

With `CC(C)(C)c1cc(-c2ccc3c(c2)CC/C3=N\NS(C)(=O)=O)cc(-n2ccc(=O)[nH]c2=O)c1` [IB-L0-2.7, (E)-N-(5-(3-tert-butyl-5-(2,4-dioxo-3,4-dihydropyrimidin-1(2H)-yl)phenyl)-2,3-dihydro-1H-inden-1-ylidene)methanesulfonohydrazide], the EC50 in assay [1] is 10 to 100 nM; in assay [2], 100 to 1000 nM.

As to `COc1c(-c2ccc3c(CNS(C)(=O)=O)csc3c2)cc(-n2ccc(=O)[nH]c2=O)cc1C(C)(C)C` [IB-L0-2.11], the values for the EC50 in assay [1] and in assay [2] were less than 10 nM and 10 to 100 nM, respectively.

As for `COc1c(-c2ccc3c(c2)CCC3(F)CNS(C)(=O)=O)cc(-n2ccc(=O)[nH]c2=O)cc1C(C)(C)C` (stereo not shown) [IB-L0-2.12, N-((5-(3-tert-butyl-5-(2,4-dioxo-3,4-dihydropyrimidin-1(2H)-yl)-2-methoxyphenyl)-1-fluoro-2,3-dihydro-1H-inden-1-yl)methyl)methanesulfonamide], the results for the EC50 in assay [1] and in assay [2] were less than 10 nM and 10 to 100 nM, respectively.

For `COc1c(-c2ccc3c(c2)CC=C3CNS(C)(=O)=O)cc(-n2ccc(=O)[nH]c2=O)cc1C(C)(C)C` [IB-L0-2.13], the EC50 was less than 10 nM in assay [1] and 10 to 100 nM in assay [2].

One may read the IC50 as the concentration that inhibits the measured activity by half. Lower therefore signals greater potency. For the compound `COc1c(-c2ccc3c(c2)CC=C3CN(C)S(C)(=O)=O)cc(-n2ccc(=O)[nH]c2=O)cc1C(C)(C)C` [IB-L0-2.16], the IC50 was 10 to 100 nM in assay [3] and less than 10 nM in assay [4].

Take `COc1c(-c2ccc3c(c2)CCC3CNS(C)(=O)=O)cc(-n2ccc(=O)[nH]c2=O)cc1C(C)(C)C` (stereo not shown) [IB-L0-2.17, N-((5-(3-tert-butyl-5-(2,4-dioxo-3,4-dihydropyrimidin-1(2H)-yl)-2-methoxyphenyl)-2,3-dihydro-1H-inden-1-yl)methyl)methanesulfonamide]: the EC50 was less than 10 nM in assay [1] and 10 to 100 nM in assay [2].

As for `COc1c(-c2ccc3c(CNS(C)(=O)=O)coc3c2)cc(-n2ccc(=O)[nH]c2=O)cc1C(C)(C)C` [IB-L0-2.18], the results for the EC50 in assay [1] and in assay [2] were 10 to 100 nM and 100 to 1000 nM, respectively.

Regarding `COc1c(-c2ccc3c(CN(C)S(C)(=O)=O)csc3c2)cc(-n2ccc(=O)[nH]c2=O)cc1C(C)(C)C` [IB-L0-2.21], the EC50 in assay [1] fell in the range of 10 to 100 nM; in assay [2], 100 to 1000 nM.

Turning to `COC(=O)NN=C1CCc2cc(-c3cc(-n4ccc(=O)[nH]c4=O)cc(C(C)(C)C)c3OC)ccc21` [IB-L0-2.24, methyl 2-(5-(3-tert-butyl-5-(2,4-dioxo-3,4-dihydropyrimidin-1 (2H)-yl)-2-methoxyphenyl)-2,3-dihydro-1H-inden-1-ylidene)hydrazinecarboxylate], the EC50 in assay [1] and in assay [2] was 10 to 100 nM each time.

Regarding `COc1c(-c2ccc3c(c2)CCC3(C)CNS(C)(=O)=O)cc(-n2ccc(=O)[nH]c2=O)cc1C(C)(C)C` (stereo not shown) [IB-L0-2.25, N-((5-(3-tert-butyl-5-(2,4-dioxo-3,4-dihydropyrimidin-1(2H)-yl)-2-methoxyphenyl)-1-methyl-2,3-dihydro-1H-inden-1-yl)methyl)methane sulfonamide], the EC50 was 10 to 100 nM in assay [1] and 100 to 1000 nM in assay [2].

Turning to `COc1c(-c2ccc3c(c2)CCC3C(C)(C)NS(C)(=O)=O)cc(-n2ccc(=O)[nH]c2=O)cc1C(C)(C)C` (stereo not shown) [IB-L0-2.29, N-(2-(5-(3-tert-butyl-5-(2,4-dioxo-3,4-dihydropyrimidin-1(2H)-yl)-2-methoxyphenyl)-2,3-dihydro-1H-inden-1-yl)propan-2-yl)methanesulfonamide], the figures for the EC50 in assay [1] and in assay [2] were 10 to 100 nM and 100 to 1000 nM, respectively.

As for `COc1c(-c2ccc3c(c2)CCC3C(=O)NS(C)(=O)=O)cc(-n2ccc(=O)[nH]c2=O)cc1C(C)(C)C` (stereo not shown) [IB-L0-2.34, 5-(3-tert-butyl-5-(2,4-dioxo-3,4-dihydropyrimidin-1(2H)-yl)-2-methoxyphenyl)-N-(methylsulfonyl)-2,3-dihydro-1H-indene-1-carboxamide], the EC50 was 100 to 1000 nM in assay [1] and more than 1000 nM in assay [2].

Turning to `CC(C)(C)c1cc(-n2ccc(=O)[nH]c2=O)cc(-c2ccc3c(CNS(C)(=O)=O)csc3c2)c1Cl` [IB-L0-2.35, N-((6-(3-tert-butyl-2-chloro-5-(2,4-dioxo-3,4-dihydropyrimidin-1(2H)-yl)phenyl)benzo [b]thiophen-3-yl)methyl)methanesulfonamide], the EC50 was 100 to 1000 nM in assay [1] and more than 1000 nM in assay [2].

In the case of `COc1c(-c2ccc3c(c2)CCC3O)cc(-n2ccc(=O)[nH]c2=O)cc1C(C)(C)C` (stereo not shown) [IB-L0-2.36, 1-(3-tert-butyl-5-(1-hydroxy-2,3-dihydro-1H-inden-5-yl)-4-methoxyphenyl)pyrimidine-2,4(1H,3H)-dione], the figures for the EC50 in assay [1] and in assay [2] were 10 to 100 nM and 100 to 1000 nM, respectively.

As for `COc1c(-c2ccc3cc(CNS(C)(=O)=O)sc3c2)cc(-n2ccc(=O)[nH]c2=O)cc1C(C)(C)C` [IB-L0-2.40], the EC50 in assay [1] was 100 to 1000 nM; in assay [2], more than 1000 nM.

On to `COc1c(-c2ccc3c(c2)CCC3NS(C)(=O)=O)cc(-n2ccc(=O)[nH]c2=O)cc1C(C)(C)C` (stereo not shown) [IB-L0-2.44, N-(5-(3-tert-butyl-5-(2,4-dioxo-3,4-dihydropyrimidin-1(2H)-yl)-2-methoxyphenyl)-2,3-dihydro-1H-inden-1-yl)methanesulfonamide], for which the EC50 in assay [1] and in assay [2] was more than 1000 nM throughout.

For the compound `CCCNc1nc2ccc(-c3cc(-n4ccc(=O)[nH]c4=O)cc(C(C)(C)C)c3OC)cc2s1` [IB-L0-2.46, 1-(3-tert-butyl-4-methoxy-5-(2-(propylamino)benzo[d]thiazol-6-yl)phenyl)pyrimidine-2,4(1H,3H)-dione], the IC50 in assay [3] and in assay [4] was 100 to 1000 nM in each case.

In the case of `COc1c(-c2ccc3c(c2)CCC3=O)cc(-n2ccc(=O)[nH]c2=O)cc1C(C)(C)C` [IB-L0-2.50, 1-(3-tert-butyl-4-methoxy-5-(1-oxo-2,3-dihydro-1H-inden-5-yl)phenyl)pyrimidine-2,4(1H,3H)-dione], the EC50 in assay [1] and in assay [2] was 100 to 1000 nM throughout.

On to `COc1c(-c2ccsc2)cc(-n2ccc(=O)[nH]c2=O)cc1-c1ccc2c(c1)CC=C2CNS(C)(=O)=O` [IB-L0-2.62], for which the EC50 in assay [1] lay within 10 to 100 nM; in assay [2] it was 100 to 1000 nM.

`COc1c(-c2ccc3c(c2)CC=C3CNS(C)(=O)=O)cc(-n2ccc(=O)[nH]c2=O)cc1-c1cccs1` [IB-L0-2.63]: the EC50 in assay [1] was 10 to 100 nM; in assay [2], 100 to 1000 nM.

In the case of `COc1c(-c2ccc3c(c2)CC=C3CNS(C)(=O)=O)cc(-n2ccc(=O)[nH]c2=O)cc1-c1ccco1` [IB-L0-2.65], the EC50 was in the range of 10 to 100 nM in assay [1] and 100 to 1000 nM in assay [2].

Regarding `COc1c(-c2ccoc2)cc(-n2ccc(=O)[nH]c2=O)cc1-c1ccc2c(c1)CC=C2CNS(C)(=O)=O` [IB-L0-2.67], the EC50 in assay [1] was 10 to 100 nM; in assay [2], 100 to 1000 nM.
